# Source: US9932297B2, “Alkynes and methods of reacting alkynes with 1,3-dipole-functional compounds” (UNIVERSITY OF GEORGIA RESEARCH FOUNDATION, INC., priority 2007, dated 2018)
# Tests used:
# [1] = Cycloaddition with benzyl azide, second-order rate constant by 1H NMR; format: physicochemical; details: for second-order rate constant: NMR
# Protocol: However, upon exposure to azides a fast reaction took place and gave the corresponding triazoles in high yield. For example, triazoles 10-13 were obtained in quantitative yields as mixtures of regioisomers by reaction of the corresponding azido-containing sugar and amino acid derivatives with 3 in methanol for 30 minutes (Scheme 2; FIG. 3 and FIG. 4). The progress of the reaction of 3 with benzyl azide in methanol and in a mixture of water/acetonitrile (1:4 v/v) was monitored by NMR spectroscopy by integration of the benzylic proton signals, and second-order rate constants of 0.17 and 2.3 m^−1s^−1, respectively, were determined.
# A number of analogs (63-68) of 4-dibenzocyclooctynol (61) were prepared and the influence of these modifications on the reaction rate of the cycloaddition with benzyl azide was determined by integration of the benzylic proton signals in ^1H NMR spectrum.
# General Method for Calculating Second Order Rate Constants by NMR.
# Substrates were dissolved separately in the appropriate solvent and mixed 1:1 at 6 mM concentrations. Percent conversion was monitored both by disappearance of starting material and appearance of the two regioisomeric products as determined by integration at multiple chemical shifts. Second order rate constants for the reaction were determined by plotting the 1/[substrates] versus time and analysis by linear regression. Second order rate constants correspond to one half of the determined slope.
# [2] = Shelf life and reactivity towards nucleophiles; format: physicochemical
# [3] = system: Jurkat cells bearing azides (Ac4ManNAz-treated); test: Cell surface azide labeling and detection by fluorescence intensity (avidin-FITC); format: cell-based, Human
# Protocol: FIG. 6 illustrates embodiments of cell-surface labeling with compounds 2 and 9. Jurkat cells grown for three days in the absence or presence of Ac4ManNAz (25 micromolar) were incubated a) with compounds 2 and 9 (30 micromolar) for 0-180 minutes or b) with compounds 2 and 9 (0-100 micromolar) for 1 hour at room temperature. Next, the cells were incubated with avidin-FITC for 15 minutes at 4° C., after which cell lysates were assessed for fluorescence intensity. Samples are indicated as follows: blank cells incubated with 2 (∘) or 9 (□), and Ac,ManNAz cells incubated with 2 (●) or 9 (▪).
# Next, Jurkat cells were cultured in the presence of 25 micromolar N-azidoacetylmannosamine (Ac4ManNAz) for three days to metabolically introduce N-azidoacetylsialic acid (SiaNAz) moieties into glycoproteins (Luchansky and Bertozzi, Chem-BioChem 2004, 5:1706-1709). As a negative control, Jurkat cells were employed that were grown in the absence of Ac4ManNAz. The cells were exposed to a 30 micromolar solution of compound 9 for various time periods, and after washing, the cells were stained with avidin-fluorescein isothiocyanate (FITC) for 15 minutes at 4° C. The efficiency of the two-step cell-surface labeling was determined by measuring the fluorescence intensity of the cell lysates. […]
# [4] = system: CHO cells bearing azides (Ac4ManNAz-treated); test: Cell labeling and detection by fluorescence (confocal) microscopy; format: cell-based, Chinese hamster
# Protocol: FIG. 8 illustrates fluorescence images for embodiments of cells labeled with compound 9 and avidin-Alexa Fluor 488. CHO cells grown for 3 days in the absence (d-f) or presence (a-c) of Ac4ManNAz (100 micromolar) were incubated with compound 9 (30 micromolar) for 1 hour at 4° C. (a, d) or room temperature (b, c, e, f). Next, cells were incubated with avidin-Alexa Fluor 488 for 15 minutes at 4° C. and, after washing, fixing, and staining for the nucleus with far-red-fluorescent dye TO-PRO, imaged (a, b, d, e) or after washing incubated for 1 hour at 37° C. before fixing, nucleus staining, and imaging (c, f).
# Next, attention was focused on visualizing azido-containing glycoconjugates of living cells by confocal microscopy. Thus, adherent Chinese hamster ovary (CHO) cells were cultured in the presence of Ac4ManNAz (100 micromolar) for three days. The resulting cell-surface azido moieties were treated with 9 (30 micromolar) for 1 hour and then with avidin-AlexaFluor488 for 15 minutes at 4° C.
# Cell-surface glycoconjugates are constantly recycled by endocytosis, and to monitor this process, metabolically labeled cells were reacted with 9 and avidin-AlexaFluor488 according to the standard protocol and incubated at 37° C. for 1 hour before examination by confocal microscopy.
# Chinese hamster ovary (CHO) cells (Clone K1; ATCC) were cultured in Kaighn's modification of Ham's F-12 medium (F-12K) with L-glutamine (2 mM), adjusted to contain sodium bicarbonate (1.5 g L^−1) and supplemented with penicillin (100 u mL^−1)/streptomycin (100 micrograms mL^−1 and FBS (10%). Cells were maintained in a humid 5% CO2 atmosphere at 37° C. CHO cells were grown in the presence of Ac4ManNaz (100 micromolar final concentration) for 3 days to metabolically incorporate SiaNAz into their cell surface glycoproteins. CHO cells bearing azides and untreated control cells were then transferred to a glass coverslip and cultured for 36 hours in their original medium. […] The step size, based on the calculated optimum for each objective, was between 0.25 and 0.5 micrometers. […]
# [5] = Solubility seen in the labeling experiment; format: physicochemical; details: no increase in labeling above 100 micromolar
# Protocol: The concentration dependence of the cell-surface labeling was studied by incubation of cells with various concentrations of 2 and 9 followed by staining with avidin-FTIC (FIG. 6b).
# [6] = cycloaddition with benzyl azide
structure (smiles),measurement,setting,value
"C1#Cc2ccccc2CCc2ccccc21 [Compound 62, reference compound]",times slower reaction than 4-dibenzocyclooctynol (61),[1]; [6],approximately 70 times
"O=C1Cc2ccccc2C#Cc2ccccc21 [Compound 67, 6H-11,12-didehydro-dibenzo[a,e]cyclooctatrien-5-one]",reaction rate compared with 61 (in words),[1]; [6],slightly higher reaction rate than 1
"OC1Cc2ccccc2C#Cc2ccccc21 (stereo not drawn) [Compound 3, 3-Hydroxy-7,8-didehydro-1,2:5,6-dibenzocyclooctene]",rate constant compared with cyclooctyne 1,[1]; acetonitrile/water,three orders of magnitude greater
same,second-order rate constant,[1]; reaction with benzyl azide in methanol,0.17 m^−1s^−1
same,second-order rate constant,[1]; reaction with benzyl azide in water/acetonitrile (1:4 v/v),2.3 m^−1s^−1
same,shelf life,[2],"excellent, long shelf life"
same,reactivity with nucleophiles,[2]; thiols and amines,did not react with nucleophiles such as thiols and amines
"[Cl][Cu] [Cu^ICl, reference compound]",cell death,Jurkat cells,approximately 98%
"O=C(CCCCC1SCC2NC(=O)NC21)NCCOCCOCCNC(=O)OC1Cc2ccccc2C#Cc2ccccc21 (stereo not drawn) [Compound 9, Carbonic acid 7,8-didehydro-1,2:5,6-dibenzocyclooctene-3-yl ester, 8′-biotinylamine-3′,6′-dioxaoctane 1′-amide]",incubation time after which labeling was almost complete,"[3]; 30 micromolar, room temperature, then avidin-FITC",60 min
same,concentration at which reliable fluorescent labeling was achieved,[3]; 1 hour at room temperature,3 µM
same,labeling efficiency at ambient temperature versus 4° C.,"[4]; 30 micromolar, 1 hour",equally efficient when performed at either ambient temperature or 4 °C
same,location of staining,"[4]; 30 micromolar, 1 hour, then avidin-AlexaFluor488",staining was observed only at the surface
same,internalization of labeled glycoproteins,"[4]; after labeling, incubated at 37° C. for 1 hour",a significant quantity of labeled glycoproteins had been internalized into vesicular compartments
same,solubility,[5],limited solubility
same,effect on cell viability,"Jurkat cells; two-step labeling, morphology and exclusion of trypan blue",no effect on cell viability
